Test results: patent US9714240B2 (PharmAkea, Inc., priority 2013, dated 2017)

Biological target: T1, human autotaxin (Homo sapiens, UniProt Q13822)
T1 construct: Conditioned media is collected from confluent Hep3B cells and concentrated 20-fold; endogenous in cells; host or cells: Hep3B human hepatocellular carcinoma cells (concentrated conditioned medium)
Experiment: Human Autotaxin Assay (choline release from LPC)
Type: biochemical
Settings: ATX in concentrated conditioned media from Hep3B cells, substrate LPC 14:0 100 uM, absorbance at 555 nm
Method: ATX activity is assayed in concentrated conditioned media from Hep3B human hepatocellular carcinoma cells by measuring the amount of choline released from the substrate, lysophosphatidylcholine (LPC) as it is cleaved to LPA. Conditioned media is collected from confluent Hep3B cells and concentrated 20-fold using Centriprep-30 filter devices (Millipore). To assay for autotaxin inhibition, 10-20 μL of the concentrated conditioned media is incubated with 2.5 μL of a test compound in DMSO and 72.5-82.5 μL lyso-PLD buffer (100 mM Tris pH 9, 500 mM NaCl, 5 mM MgCl2, 5 mM CaCl2, 0.05% Triton X-100 in the presence or absence of 0.2% fatty-acid-free human serum albumin) for 15 min at 37° C. After the 15 min incubation, 5 ul of 2 mM LPC (14:0; Avanti Polar Lipids Cat#855575C) diluted in lyso-PLD buffer is added for a final concentration of 100 uM and the incubation continues for 1.5-3 hours at 37° C. 100 μl of a color mix containing 4.5 mM 4-aminoantipyrine, 2.7 mM N-ethyl-N-(2-hydroxy-3-sulfopropyl)-m-toluidine, 21 units/ml horseradish peroxidase and 3 units/ml choline oxidase in 50 mM Tris, pH 8, 4.5 mM MgCl2 is added and the incubation continued for 15 minutes at room temperature before reading the absorbance at 555 nm.

IC50, > 10000 nM:
CCCn1cc(-n2cc(/C=C(\C#N)c3ccc(C(=O)O)cc3)c3ccc(Cl)cc32)cn1 [Compound 1-12, 4-[(Z)-2-[6-chloro-1-(1-propylpyrazol-4-yl)indol-3-yl]-1-cyano-vinyl]benzoic Acid]
N#C/C(=C\c1cn(Cc2ccc(OCC(F)(F)F)nc2)c2cc(Cl)ccc12)c1ccc(C(=O)O)cc1 [Compound 1-48, (Z)-4-(2-(6-chloro-1-((6-(2,2,2-trifluoroethoxy)pyridin-3-yl)methyl)-1H-indol-3-yl)-1-cyanovinyl)benzoic Acid]
N#C/C(=C\c1cn(CCCc2ccc(F)cc2)c2cc(Cl)ccc12)c1ccc(C(=O)O)cc1 [Compound 1-23, 4-[(Z)-2-[6-chloro-1-[3-(4-fluorophenyl)propyl]indol-3-yl]-1-cyano-vinyl]benzoic Acid]
N#C/C(=C\c1cn(CCc2ccc(F)cc2)c2cc(Cl)ccc12)c1ccc(C(=O)O)cc1 [Compound 1-22, 4-[(Z)-2-[6-chloro-1-[2-(4-fluorophenyl)ethyl]indol-3-yl]-1-cyano-vinyl]benzoic Acid]
N#C/C(=C\c1cn(Cc2ccc(F)cc2C(F)(F)F)c2cc(Cl)ccc12)c1ccc(C(=O)O)cc1 [Compound 1-46, (Z)-4-(2-(6-chloro-1-(4-fluoro-2-(trifluoromethyl)benzyl)-1H-indol-3-yl)-1-cyanovinyl)benzoic Acid]
N#C/C(=C\c1cn(Cc2cc(C(F)(F)F)cc(C(F)(F)F)c2)c2cc(Cl)ccc12)c1ccc(C(=O)O)cc1 [Compound 1-20, 4-[(Z)-2-[1-[[3,5-bis(trifluoromethyl)phenyl]methyl]-6-chloro-indol-3-yl]-1-cyano-vinyl]benzoic Acid]

IC50, ≤ 500 nM:
N#C/C(=C\c1cn(Cc2ccc(F)cc2)c2cc([N+](=O)[O-])ccc12)c1ccc(C(=O)O)cc1 [Compound 1-66, (Z)-4-(1-cyano-2-(1-(4-fluorobenzyl)-6-nitro-1H-indol-3-yl)vinyl)benzoic Acid]
N#C/C(=C\c1cn(Cc2ccc(F)cc2)c2cc(F)cc(F)c12)c1ccc(C(=O)O)cc1 [Compound 1-11, 4-[(Z)-1-cyano-2-[4,6-difluoro-1-[(4-fluorophenyl)methyl]indol-3-yl]vinyl]benzoic Acid]
COc1ccc(Cn2cc(/C=C(\C#N)c3ccc(C(=O)O)cc3)c3ccc(Cl)cc32)cn1 [Compound 1-26, 4-[(Z)-2-[6-chloro-1-[(6-methoxy-3-pyridyl)methyl]indol-3-yl]-1-cyano-vinyl]benzoic Acid]
COc1ccc2c(/C=C(\C#N)c3ccc(C(=O)O)cc3)cn(Cc3ccc(F)cc3)c2c1 [Compound 1-10, 4-[(Z)-1-cyano-2-[1-[(4-fluorophenyl)methyl]-6-methoxy-indol-3-yl]vinyl]benzoic Acid]
N#C/C(=C\c1cn(Cc2cnc(C(F)(F)F)s2)c2cc(OC(F)(F)F)ccc12)c1ccc(C(=O)O)cc1 [Compound 1-77, (Z)-4-(1-cyano-2-(6-(trifluoromethoxy)-1-((2-(trifluoromethyl)thiazol-5-yl)methyl)-1H-indol-3-yl)vinyl)benzoic Acid]
N#C/C(=C\c1cn(Cc2ccc(F)cc2)c2cc(Cl)ccc12)c1ccc(C(=O)O)nc1 [Compound 2-2, 5-[(Z)-2-[6-chloro-1-[(4-fluorophenyl)methyl]indol-3-yl]-1-cyano-vinyl]pyridine-2-carboxylic Acid]
CCOc1ccc2c(/C=C(\C#N)c3ccc(C(=O)O)cc3)cn(Cc3ccc(F)cc3)c2c1 [Compound 1-65, (Z)-4-(1-cyano-2-(6-ethoxy-1-(4-fluorobenzyl)-1H-indol-3-yl)vinyl)benzoic Acid]
N#C/C(=C\c1cn(Cc2ccc(Cl)nc2)c2cc(Cl)ccc12)c1ccc(C(=O)O)cc1 [Compound 1-16, 4-[(Z)-2-[6-chloro-1-[(6-chloro-3-pyridyl)methyl]indol-3-yl]-1-cyano-vinyl]benzoic Acid]
N#C/C(=C\c1cn(Cc2ccc(F)cc2)c2cc(F)ccc12)c1ccc(C(=O)O)cc1 [Compound 1-7, 4-[(Z)-1-cyano-2-[6-fluoro-1-[(4-fluorophenyl)methyl]indol-3-yl]vinyl]benzoic Acid]
N#C/C(=C\c1cn(Cc2cnc(C(F)(F)F)s2)c2cc(Cl)ccc12)c1ccc(C(=O)O)cc1 [Compound 1-15, 4-[(Z)-2-[6-chloro-1-[[2-(trifluoromethyl)thiazol-5-yl]methyl]indol-3-yl]-1-cyano-vinyl]benzoic Acid]
N#C/C(=C\c1cn(Cc2ccc(F)cc2)c2cc(OC(F)(F)F)ccc12)c1ccc(C(=O)O)cc1 [Compound 1-75, (Z)-4-(1-cyano-2-(1-(4-fluorobenzyl)-6-trifluoromethoxy-1H-indol-3-yl)vinyl)benzoic Acid]
N#C/C(=C\c1cn(Cc2cnc(C(F)(F)F)s2)c2c(F)c(Cl)ccc12)c1ccc(C(=O)O)cc1 [Compound 1-52]

IC50, 500 to 10000 nM:
N#C/C(=C\c1cn(Cc2ccncc2)c2cc(Cl)ccc12)c1ccc(C(=O)O)cc1 [Compound 1-14, 4-[(Z)-2-[6-chloro-1-(4-pyridylmethyl)indol-3-yl]-1-cyano-vinyl]benzoic Acid]
N#C/C(=C\c1cn(Cc2ccc(OC(F)F)cc2F)c2cc(Cl)ccc12)c1ccc(C(=O)O)cc1 [Compound 1-47, (Z)-4-(2-(6-chloro-1-(4-(difluoromethoxy)-2-fluorobenzyl)-1H-indol-3-yl)-1-cyanovinyl)benzoic Acid]
N#C/C(=C\c1cn(Cc2ccc(C(F)(F)F)cc2)c2cc(Cl)ccc12)c1ccc(C(=O)O)cc1 [Compound 1-21, 4-[(Z)-2-[6-chloro-1-[[4-(trifluoromethyl)phenyl]methyl]indol-3-yl]-1-cyano-vinyl]benzoic Acid]
N#C/C(=C\c1cn(Cc2ccc(OC(F)(F)F)cc2)c2cc(Cl)ccc12)c1ccc(C(=O)O)cc1 [Compound 1-45, (Z)-4-(2-(6-chloro-1-(4-(trifluoromethoxy)benzyl)-1H-indol-3-yl)-1-cyanovinyl)benzoic Acid]
N#C/C(=C\c1cn(CCCc2ccccc2)c2cc(Cl)ccc12)c1ccc(C(=O)O)cc1 [Compound 1-24, 4-[(Z)-2-[6-chloro-1-(3-phenylpropyl)indol-3-yl]-1-cyano-vinyl]benzoic Acid]
N#C/C(=C\c1cn(Cc2ccc(F)cc2)c2cc(Cl)ccc12)c1cccc(C(=O)O)c1 [Compound 2-26]
Cn1cc(Cn2cc(/C=C(\C#N)c3ccc(C(=O)O)cc3)c3ccc(Cl)cc32)cn1 [Compound 1-25, 4-[(Z)-2-[6-chloro-1-[(1-methylpyrazol-4-yl)methyl]indol-3-yl]-1-cyano-vinyl]benzoic Acid]
N#C/C(=C\c1cn(Cc2ccc(F)cc2)c2ccccc12)c1ccc(C(=O)O)cc1 [Compound 1-1, 4-[(Z)-1-cyano-2-[1-[(4-fluorophenyl)methyl]indol-3-yl]vinyl]benzoic Acid]
N#C/C(=C\c1cn(Cc2ccccc2)c2cc(Cl)ccc12)c1cccc(C(=O)O)c1 [Compound 2-4, 3-[(Z)-2-(1-benzyl-6-chloro-indol-3-yl)-1-cyano-vinyl]benzoic Acid]
N#C/C(=C\c1cn(Cc2ccc(F)cc2)c2c(Cl)cccc12)c1ccc(C(=O)O)cc1 [Compound 1-5, 4-[(Z)-2-[7-chloro-1-[(4-fluorophenyl)methyl]indol-3-yl]-1-cyano-vinyl]benzoic Acid]
N#C/C(=C\c1cn(Cc2cc(Cl)cc(Cl)c2)c2cc(Cl)ccc12)c1ccc(C(=O)O)cc1 [Compound 1-19, 4-[(Z)-2-[6-chloro-1-[(3,5-dichlorophenyl)methyl]indol-3-yl]-1-cyano-vinyl]benzoic Acid]
N#C/C(=C\c1cn(Cc2ccc(F)cc2)c2cccc(Cl)c12)c1ccc(C(=O)O)cc1 [Compound 1-2, 4-[(Z)-1-cyano-2-[4-chloro-1-[(4-fluorophenyl)methyl]indol-3-yl]vinyl]benzoic Acid]
